The values below come from ChEMBL document CHEMBL1145498, “A systematic interaction map of validated kinase inhibitors with Ser/Thr kinases” (Proc Natl Acad Sci U S A, 2007).

For assay [1], the target named is T1, Serine/threonine-protein kinase PLK4 (Homo sapiens) (UniProt O00444).
T1 sequence (whole entry): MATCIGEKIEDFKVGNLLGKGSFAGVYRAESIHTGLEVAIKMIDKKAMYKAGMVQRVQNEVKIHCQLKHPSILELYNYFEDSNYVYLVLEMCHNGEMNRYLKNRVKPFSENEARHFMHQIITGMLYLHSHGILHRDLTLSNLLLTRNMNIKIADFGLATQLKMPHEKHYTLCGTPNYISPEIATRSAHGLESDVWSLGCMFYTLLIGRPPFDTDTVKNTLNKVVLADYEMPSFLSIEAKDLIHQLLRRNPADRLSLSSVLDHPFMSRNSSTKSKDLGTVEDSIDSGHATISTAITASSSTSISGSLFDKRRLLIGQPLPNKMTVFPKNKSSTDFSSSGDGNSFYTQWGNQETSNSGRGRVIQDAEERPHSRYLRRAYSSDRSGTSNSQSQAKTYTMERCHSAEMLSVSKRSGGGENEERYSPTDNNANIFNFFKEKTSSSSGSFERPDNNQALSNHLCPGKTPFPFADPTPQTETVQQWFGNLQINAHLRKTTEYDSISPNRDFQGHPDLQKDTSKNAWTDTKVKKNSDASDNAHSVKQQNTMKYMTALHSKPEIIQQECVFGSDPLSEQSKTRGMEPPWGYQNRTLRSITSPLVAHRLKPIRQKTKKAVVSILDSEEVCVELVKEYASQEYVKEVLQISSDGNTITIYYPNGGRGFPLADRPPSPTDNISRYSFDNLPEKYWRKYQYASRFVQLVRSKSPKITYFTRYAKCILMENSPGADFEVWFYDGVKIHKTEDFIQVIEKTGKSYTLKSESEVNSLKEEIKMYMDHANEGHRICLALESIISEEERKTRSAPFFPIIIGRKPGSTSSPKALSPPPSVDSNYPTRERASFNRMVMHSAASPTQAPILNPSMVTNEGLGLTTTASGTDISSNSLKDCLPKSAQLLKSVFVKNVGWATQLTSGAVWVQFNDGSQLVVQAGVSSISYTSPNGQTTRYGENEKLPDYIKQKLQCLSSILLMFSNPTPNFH

Assay [2] has as its target Serine/threonine-protein kinase VRK2 (Homo sapiens) (UniProt Q86Y07).
Assay [3] has as its target Casein kinase I isoform gamma-3 (Homo sapiens) (UniProt Q9Y6M4).
The target in assay [4] is Serine/threonine-protein kinase Nek6 (Homo sapiens) (UniProt Q9HC98).
The target of assay [5] is Serine/threonine-protein kinase 16 (Homo sapiens) (UniProt O75716).
Assay [6] deals with Dual specificity protein kinase CLK1 (Homo sapiens) (UniProt P49759).
The target of assay [7] is Serine/threonine-protein kinase OSR1 (Homo sapiens) (UniProt O95747).
Assay [8] concerns the target Cyclin-dependent kinase-like 1 (Homo sapiens) (UniProt Q00532).
Assay [9] has as its target Casein kinase I isoform gamma-1 (Homo sapiens) (UniProt Q9HCP0).
Assay [10] deals with Dual specificity protein kinase CLK3 (Homo sapiens) (UniProt P49761).
The target of assay [11] is Dual specificity protein kinase CLK2 (Homo sapiens) (UniProt P49760).
Assay [12] has as its target Calcium/calmodulin-dependent protein kinase type II subunit alpha (Homo sapiens) (UniProt Q9UQM7).
For assay [13], the target named is T2, Serine/threonine-protein kinase 17A (Homo sapiens) (UniProt Q9UEE5).
T2 sequence (whole entry): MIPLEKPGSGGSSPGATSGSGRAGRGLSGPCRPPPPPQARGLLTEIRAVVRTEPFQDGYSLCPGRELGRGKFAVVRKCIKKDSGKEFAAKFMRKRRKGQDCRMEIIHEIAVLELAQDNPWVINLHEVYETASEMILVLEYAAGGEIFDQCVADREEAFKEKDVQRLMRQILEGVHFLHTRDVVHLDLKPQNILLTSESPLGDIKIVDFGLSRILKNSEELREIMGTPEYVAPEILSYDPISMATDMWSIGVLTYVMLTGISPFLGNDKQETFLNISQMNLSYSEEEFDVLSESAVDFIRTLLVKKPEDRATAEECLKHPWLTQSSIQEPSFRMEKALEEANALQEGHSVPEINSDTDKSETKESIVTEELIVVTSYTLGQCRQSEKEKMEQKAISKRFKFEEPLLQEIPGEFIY

Assay [14] concerns the target T3, 3-phosphoinositide-dependent protein kinase 1 (Homo sapiens) (UniProt O15530).
T3 sequence (whole entry): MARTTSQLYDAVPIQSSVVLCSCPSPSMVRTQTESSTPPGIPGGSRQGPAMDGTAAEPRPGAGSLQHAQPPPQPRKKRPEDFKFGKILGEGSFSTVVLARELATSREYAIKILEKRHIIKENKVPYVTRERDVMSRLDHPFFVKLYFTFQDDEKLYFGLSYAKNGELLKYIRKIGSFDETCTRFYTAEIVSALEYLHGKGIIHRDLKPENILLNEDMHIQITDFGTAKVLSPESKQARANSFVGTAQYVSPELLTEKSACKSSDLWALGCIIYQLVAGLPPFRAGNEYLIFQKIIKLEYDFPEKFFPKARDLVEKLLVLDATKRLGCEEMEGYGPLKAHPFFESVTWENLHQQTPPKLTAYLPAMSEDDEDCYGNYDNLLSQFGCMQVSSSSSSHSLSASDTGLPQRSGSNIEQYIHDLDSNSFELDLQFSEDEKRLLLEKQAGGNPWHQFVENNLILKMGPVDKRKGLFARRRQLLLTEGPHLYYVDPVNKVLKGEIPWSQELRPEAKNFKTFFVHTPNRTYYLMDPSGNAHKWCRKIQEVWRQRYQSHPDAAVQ

Assay [15] has as its target Calcium/calmodulin-dependent protein kinase kinase 2 (Homo sapiens, UniProt Q96RR4).
Assay [16] has as its target Calcium/calmodulin-dependent protein kinase type II subunit delta (Homo sapiens) (UniProt Q13557).

Chain of Serine/threonine-protein kinase VRK2 (Homo sapiens) (Q86Y07 whole entry, canonical isoform): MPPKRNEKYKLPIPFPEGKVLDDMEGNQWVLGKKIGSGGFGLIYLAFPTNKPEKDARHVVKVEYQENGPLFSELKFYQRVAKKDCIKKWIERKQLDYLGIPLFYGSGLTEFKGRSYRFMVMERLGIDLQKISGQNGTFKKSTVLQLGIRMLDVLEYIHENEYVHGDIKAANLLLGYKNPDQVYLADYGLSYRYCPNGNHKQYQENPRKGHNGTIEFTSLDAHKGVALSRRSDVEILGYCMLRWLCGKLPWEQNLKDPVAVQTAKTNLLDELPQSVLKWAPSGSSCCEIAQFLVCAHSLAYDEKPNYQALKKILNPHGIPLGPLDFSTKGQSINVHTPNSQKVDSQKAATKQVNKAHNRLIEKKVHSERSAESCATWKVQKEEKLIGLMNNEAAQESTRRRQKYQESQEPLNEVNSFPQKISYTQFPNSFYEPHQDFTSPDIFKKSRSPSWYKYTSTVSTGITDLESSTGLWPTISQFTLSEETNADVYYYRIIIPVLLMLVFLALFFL
Chain of Casein kinase I isoform gamma-1 (Homo sapiens) (Q9HCP0 whole entry, looked up, canonical isoform): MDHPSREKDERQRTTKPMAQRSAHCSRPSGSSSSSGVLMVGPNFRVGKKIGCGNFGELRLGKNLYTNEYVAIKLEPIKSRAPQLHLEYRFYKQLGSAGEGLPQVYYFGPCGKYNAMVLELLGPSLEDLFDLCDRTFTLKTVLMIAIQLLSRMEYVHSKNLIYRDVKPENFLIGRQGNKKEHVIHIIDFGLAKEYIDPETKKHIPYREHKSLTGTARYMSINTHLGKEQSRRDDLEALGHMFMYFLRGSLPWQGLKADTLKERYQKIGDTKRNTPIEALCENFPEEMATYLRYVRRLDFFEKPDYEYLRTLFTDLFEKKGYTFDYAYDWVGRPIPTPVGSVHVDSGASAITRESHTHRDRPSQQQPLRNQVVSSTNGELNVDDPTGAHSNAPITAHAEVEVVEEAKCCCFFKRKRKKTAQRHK
Chain of Serine/threonine-protein kinase 16 (Homo sapiens) (O75716 whole entry): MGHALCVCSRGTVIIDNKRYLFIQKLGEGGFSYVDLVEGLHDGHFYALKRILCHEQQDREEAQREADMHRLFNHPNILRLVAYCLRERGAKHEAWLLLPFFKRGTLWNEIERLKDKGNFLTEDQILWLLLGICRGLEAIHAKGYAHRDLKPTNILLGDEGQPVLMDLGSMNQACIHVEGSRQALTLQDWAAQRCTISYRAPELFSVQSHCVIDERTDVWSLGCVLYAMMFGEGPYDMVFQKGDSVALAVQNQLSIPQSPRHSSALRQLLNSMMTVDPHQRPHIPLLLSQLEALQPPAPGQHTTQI
Chain of Dual specificity protein kinase CLK3 (Homo sapiens) (P49761 whole entry, looked up): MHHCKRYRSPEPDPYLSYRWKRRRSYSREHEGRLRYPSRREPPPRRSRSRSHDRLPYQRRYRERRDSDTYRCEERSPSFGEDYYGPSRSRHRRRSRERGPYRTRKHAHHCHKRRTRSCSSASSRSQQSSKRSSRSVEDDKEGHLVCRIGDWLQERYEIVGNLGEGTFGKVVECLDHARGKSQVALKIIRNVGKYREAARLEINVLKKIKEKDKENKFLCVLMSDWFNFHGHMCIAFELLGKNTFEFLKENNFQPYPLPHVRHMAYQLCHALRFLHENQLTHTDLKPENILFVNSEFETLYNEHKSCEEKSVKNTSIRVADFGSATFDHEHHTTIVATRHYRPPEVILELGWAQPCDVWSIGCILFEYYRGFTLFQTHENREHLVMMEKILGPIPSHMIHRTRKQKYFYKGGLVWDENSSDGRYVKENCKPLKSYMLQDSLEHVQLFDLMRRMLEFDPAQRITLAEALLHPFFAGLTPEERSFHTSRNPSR
Chain of Dual specificity protein kinase CLK1 (Homo sapiens) (P49759 whole entry, looked up): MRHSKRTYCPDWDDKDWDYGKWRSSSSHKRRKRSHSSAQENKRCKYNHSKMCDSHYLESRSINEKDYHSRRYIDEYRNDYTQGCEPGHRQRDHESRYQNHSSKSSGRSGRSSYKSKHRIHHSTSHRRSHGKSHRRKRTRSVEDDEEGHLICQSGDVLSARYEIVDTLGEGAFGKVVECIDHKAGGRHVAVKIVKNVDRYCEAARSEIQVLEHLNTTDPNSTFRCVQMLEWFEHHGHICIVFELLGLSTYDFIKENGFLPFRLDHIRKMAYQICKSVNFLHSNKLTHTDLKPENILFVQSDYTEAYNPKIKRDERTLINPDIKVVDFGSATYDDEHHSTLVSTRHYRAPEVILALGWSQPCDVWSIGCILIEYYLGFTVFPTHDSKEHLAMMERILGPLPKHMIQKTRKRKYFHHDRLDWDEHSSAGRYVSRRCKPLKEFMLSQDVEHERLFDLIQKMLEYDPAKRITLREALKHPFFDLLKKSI
Chain of Calcium/calmodulin-dependent protein kinase type II subunit alpha (Homo sapiens) (Q9UQM7 whole entry): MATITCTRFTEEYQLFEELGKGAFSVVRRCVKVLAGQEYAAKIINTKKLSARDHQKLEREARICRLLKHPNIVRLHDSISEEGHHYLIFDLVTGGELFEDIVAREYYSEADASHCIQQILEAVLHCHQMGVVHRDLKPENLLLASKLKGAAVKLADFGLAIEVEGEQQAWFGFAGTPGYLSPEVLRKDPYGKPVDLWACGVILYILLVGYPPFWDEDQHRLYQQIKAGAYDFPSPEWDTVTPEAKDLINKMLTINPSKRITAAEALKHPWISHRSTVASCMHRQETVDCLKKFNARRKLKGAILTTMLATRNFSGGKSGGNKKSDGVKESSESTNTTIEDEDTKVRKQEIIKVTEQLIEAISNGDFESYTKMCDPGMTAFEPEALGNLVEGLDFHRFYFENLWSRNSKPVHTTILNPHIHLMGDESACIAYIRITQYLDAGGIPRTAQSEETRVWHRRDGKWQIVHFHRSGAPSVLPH
Chain of Calcium/calmodulin-dependent protein kinase type II subunit delta (Homo sapiens) (Q13557 whole entry): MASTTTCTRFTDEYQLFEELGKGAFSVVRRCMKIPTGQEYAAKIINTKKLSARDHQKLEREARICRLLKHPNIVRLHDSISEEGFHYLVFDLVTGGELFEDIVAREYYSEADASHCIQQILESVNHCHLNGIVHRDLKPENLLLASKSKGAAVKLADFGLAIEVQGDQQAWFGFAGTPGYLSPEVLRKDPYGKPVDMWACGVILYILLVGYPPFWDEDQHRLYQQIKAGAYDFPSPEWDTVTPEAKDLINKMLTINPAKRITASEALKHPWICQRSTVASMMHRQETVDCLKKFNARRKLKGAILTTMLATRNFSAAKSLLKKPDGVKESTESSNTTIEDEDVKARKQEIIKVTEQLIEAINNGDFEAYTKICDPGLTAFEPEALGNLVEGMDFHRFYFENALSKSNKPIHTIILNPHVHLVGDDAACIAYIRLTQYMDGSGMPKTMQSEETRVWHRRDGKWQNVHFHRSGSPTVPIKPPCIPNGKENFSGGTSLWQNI
Chain of Casein kinase I isoform gamma-3 (Homo sapiens) (Q9Y6M4 whole entry, looked up, canonical isoform): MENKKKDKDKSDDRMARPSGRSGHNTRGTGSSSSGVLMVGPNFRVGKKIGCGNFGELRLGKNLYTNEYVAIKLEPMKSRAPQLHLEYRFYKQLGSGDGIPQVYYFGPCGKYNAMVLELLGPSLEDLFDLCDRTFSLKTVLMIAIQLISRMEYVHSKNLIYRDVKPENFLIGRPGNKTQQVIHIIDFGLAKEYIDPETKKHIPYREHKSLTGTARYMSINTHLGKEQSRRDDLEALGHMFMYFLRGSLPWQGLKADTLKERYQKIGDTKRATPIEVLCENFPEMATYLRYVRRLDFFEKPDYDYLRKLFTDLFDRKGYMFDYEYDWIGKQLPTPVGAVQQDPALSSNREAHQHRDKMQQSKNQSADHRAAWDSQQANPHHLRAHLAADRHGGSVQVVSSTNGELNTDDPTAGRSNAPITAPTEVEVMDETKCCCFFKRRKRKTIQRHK
Chain of Serine/threonine-protein kinase OSR1 (Homo sapiens) (O95747 2-527 limits assumed): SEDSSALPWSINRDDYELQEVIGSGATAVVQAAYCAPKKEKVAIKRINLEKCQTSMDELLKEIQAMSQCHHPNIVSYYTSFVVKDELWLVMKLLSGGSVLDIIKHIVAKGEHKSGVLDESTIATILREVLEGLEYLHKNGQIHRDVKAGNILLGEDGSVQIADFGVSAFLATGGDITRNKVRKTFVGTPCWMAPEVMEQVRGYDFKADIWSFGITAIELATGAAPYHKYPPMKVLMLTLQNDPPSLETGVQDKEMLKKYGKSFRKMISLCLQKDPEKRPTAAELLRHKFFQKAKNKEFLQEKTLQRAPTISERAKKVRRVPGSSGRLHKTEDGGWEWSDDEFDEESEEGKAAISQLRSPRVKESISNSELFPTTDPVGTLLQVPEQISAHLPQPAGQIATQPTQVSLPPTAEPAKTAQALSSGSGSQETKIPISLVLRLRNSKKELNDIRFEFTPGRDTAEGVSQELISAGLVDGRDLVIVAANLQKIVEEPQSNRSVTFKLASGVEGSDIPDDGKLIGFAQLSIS
Chain of Dual specificity protein kinase CLK2 (Homo sapiens) (P49760 whole entry, looked up): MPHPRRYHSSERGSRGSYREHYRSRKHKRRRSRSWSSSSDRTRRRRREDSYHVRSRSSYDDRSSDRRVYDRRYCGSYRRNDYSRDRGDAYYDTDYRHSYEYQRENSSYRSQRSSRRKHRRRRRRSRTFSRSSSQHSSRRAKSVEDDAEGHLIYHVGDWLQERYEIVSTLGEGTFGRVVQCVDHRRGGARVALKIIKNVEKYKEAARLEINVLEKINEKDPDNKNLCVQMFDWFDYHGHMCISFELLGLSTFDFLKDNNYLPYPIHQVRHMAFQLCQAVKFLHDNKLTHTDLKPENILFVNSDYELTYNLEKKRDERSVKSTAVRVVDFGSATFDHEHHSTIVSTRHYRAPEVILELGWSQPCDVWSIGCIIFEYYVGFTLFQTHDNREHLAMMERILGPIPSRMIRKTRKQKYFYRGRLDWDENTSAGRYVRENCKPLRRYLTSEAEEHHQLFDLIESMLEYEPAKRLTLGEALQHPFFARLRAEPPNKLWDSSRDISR
Chain of Serine/threonine-protein kinase Nek6 (Homo sapiens) (Q9HC98 whole entry): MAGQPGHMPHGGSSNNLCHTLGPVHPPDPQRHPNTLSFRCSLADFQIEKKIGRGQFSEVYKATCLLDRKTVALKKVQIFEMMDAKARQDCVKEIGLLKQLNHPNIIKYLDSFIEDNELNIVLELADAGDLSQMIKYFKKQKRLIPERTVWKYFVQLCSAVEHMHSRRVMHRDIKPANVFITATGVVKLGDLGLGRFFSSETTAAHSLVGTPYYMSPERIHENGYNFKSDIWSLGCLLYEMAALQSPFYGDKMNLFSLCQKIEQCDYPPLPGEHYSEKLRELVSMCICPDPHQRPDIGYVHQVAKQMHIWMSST

For `CCCCc1c(-c2ccc(O)cc2)[nH]c2nccnc12` [ALOISINE A], the ΔTm in assay [1] stood at 3.4 °C; in assay [2], 4.2 °C; in assay [3], 2.5 °C; in assay [4] it was 2.9 °C; in [5], 2.6 °C; in assay [6], 3.5 °C. In addition, the ΔTm in assay [7] is 1.6 °C; in assay [8] it was 0.1 °C; in assay [9], 3 °C; in assay [10] it was 1.5 °C; in [11], 1.9 °C; in [12], 0.1 °C. Besides, the ΔTm in assay [13] stood at 2.9 °C; in assay [14], 4 °C; in [15], 1.8 °C; in assay [16] it was 1.8 °C.

With `O=C1NC(=O)c2c1c1c3ccccc3[nH]c1n1cncc21` [ISOGRANULATIMIDE], the ΔTm in [1] amounted to 3.2 °C; in assay [2] it was 2 °C; in [3] it was 3.6 °C; in assay [4], 1.5 °C; in assay [5] it was 7.4 °C; in [6], 4.5 °C. The ΔTm in assay [7] amounted to 1.4 °C; in [8] it was 3.7 °C; in assay [9], 4.3 °C; in assay [10], 2.3 °C; in assay [11] it was 4.1 °C; in assay [12], 3.6 °C. In addition, the ΔTm in assay [13] amounted to 1.3 °C; in [14], 1.9 °C; in assay [15], 0.5 °C; in [16], 1 °C.

Take `CCN1/C(=C/C(C)=O)Sc2ccc(OC)cc21`: the ΔTm was -0.2 °C in [1]; 0.4 °C in [2]; -1 °C in assay [4]; 1.7 °C in [5]; 0.1 °C in [7]; 0.4 °C in [8]. Also, the ΔTm in assay [9] was 2.5 °C; in [11], 4.1 °C; in assay [12] it was -0.1 °C; in [13], 0.4 °C; in assay [14], 0.2 °C; in assay [15] it was 0.4 °C. Moreover, the ΔTm in [16] is -0.6 °C.

As for `COc1cc2ncnc(Nc3ccc(NC(=O)c4ccccc4)cc3)c2cc1OC` [ANILINOQUINAZOLINE1], the ΔTm amounted to 0.5 °C in assay [1]; 0.3 °C in [3]; 0.5 °C in assay [4]; 0.4 °C in assay [5]; 1 °C in [6]; 0.3 °C in assay [7]. Besides, the ΔTm in assay [8] turned out to be 0 °C; in assay [9], 1.1 °C; in [10], 0.4 °C; in [11] it was 0 °C; in assay [12], 0 °C; in assay [13], 2.1 °C. Moreover, the ΔTm in assay [14] turned out to be 1.1 °C; in assay [15] it was 1.3 °C; in [16], 0.4 °C.

Regarding `NCCNc1ncc(C(N)=O)c(Nc2cccc(C(F)(F)F)c2)n1`, the ΔTm in assay [1] turned out to be 0.3 °C; in assay [3] it was 5.9 °C; in assay [4], 2 °C; in assay [5], 1.9 °C; in assay [6], 2.2 °C; in [7], 5.4 °C. In addition, the ΔTm was 0.6 °C in [8]; 1 °C in assay [9]; 1 °C in [10]; 1.6 °C in assay [11]; -0.3 °C in [12]; 3.2 °C in assay [13]. For the same molecule, the ΔTm in assay [14] was 5.5 °C; in assay [15], 0.6 °C; in [16] it was -0.6 °C.

Regarding `CN(C)C[C@@H]1CCn2cc(c3ccccc32)C2=C(C(=O)NC2=O)c2cn(c3ccccc23)CCO1` [RUBOXISTAURIN], the ΔTm in assay [1] is 1.5 °C; in assay [2], 1 °C; in assay [3], 0.5 °C; in assay [4] it was -0.6 °C; in assay [5], 0.8 °C; in assay [6], 5.4 °C. In addition, the ΔTm in assay [7] was -0.5 °C; in [8], 0.3 °C; in [9], 0.5 °C; in assay [10], 0.3 °C; in assay [11] it was 4.2 °C; in assay [12], 3.1 °C. For the same molecule, the ΔTm in assay [13] was -0.2 °C; in assay [14], 0.2 °C; in assay [15], 1.6 °C.

For `Cc1[nH]c(/C=C2\C(=O)Nc3ccc(S(=O)(=O)N(C)c4cccc(Cl)c4)cc32)c(C)c1C(=O)N1CCN(C)CC1`, the ΔTm in assay [1] was found to be 0.8 °C; in [3], 1.1 °C; in assay [4] it was 0.4 °C; in [5], 0.6 °C; in assay [6] it was 2.1 °C; in [7], 1.6 °C. Moreover, the ΔTm is -0.5 °C in [8]; 0.6 °C in assay [9]; 3.7 °C in assay [10]; 5.9 °C in assay [11]; 3 °C in [12]; 3.3 °C in assay [13]. Further, the ΔTm in assay [14] was -0.6 °C; in assay [15], 1.2 °C; in assay [16] it was 0.5 °C.

For `COc1cc2c(cc1OC)-c1n[nH]c(Nc3cccc(F)c3)c1C2`, the ΔTm in [1] is 1.5 °C; in assay [3], 0.8 °C; in [4], 0.1 °C; in assay [5], 0.4 °C; in assay [6], 0.1 °C; in [7] it was 0.6 °C. In addition, the ΔTm in assay [8] is -0.1 °C; in assay [9] it was 0.7 °C; in assay [10], 0.4 °C; in assay [11], 1.1 °C; in assay [12] it was 0.3 °C; in assay [13] it was 1.3 °C. Besides, the figures for the ΔTm in [14], in assay [15] and in assay [16] were -0.2 °C, 1.6 °C and 1.2 °C, respectively.

On to `Cc1ccc(NC2=CC(=O)c3sc(C)nc3C2=O)cc1`, for which the ΔTm in [1] was -0.3 °C; in [3], -4.3 °C; in assay [4] it was -0.6 °C; in assay [5], -1.2 °C; in [6], -0.8 °C; in assay [7], -0.2 °C. Further, the ΔTm in [8] was -1.3 °C; in assay [9], -0.6 °C; in [10], -0.5 °C; in assay [11] it was -1 °C; in [12] it was -0.7 °C; in [13], -0.8 °C. The thermal shift (ΔTm) in assay [14] was -3.4 °C; in [15], -2.4 °C; in [16], 0.1 °C.

For orientation: ΔTm means the shift of the melting midpoint relative to a reference.
